How the values were obtained:
[1] = Vapor pressure in high-pressure cell; assay type: physicochemical
Protocol: A high-pressure cell equipped with a certified pressure gauge was evacuated by a vacuum pump to remove all permanent gases. 14.21 g of 1233xf and 9.17 g of E-1233zd were then loaded into the cell individually by a stainless steel syringe pump. The high-pressure cell was placed in an orbital shaker in which temperature was controlled at the accuracy of 0.1° C. […] At each temperature the pressure was measured after one hour in order to achieve equilibrium. The accuracy of the pressure gauge was + or −0.1 psia. […] The measured pressure can be seen in Table 1.

[2] = Flash point, ASTM D3278-96; assay type: physicochemical
Excerpt: Flammability of a solvent is related to safety of its use. For most application, it is desirable that a solvent have as low a flammable as possible. The flammability of E-1233zd was characterized by flash point measured according to ASTM D3278-96. The flash point of TDCE and HCFC 225 were used as comparative examples.

[3] = Degreasing of lubricant oil from stainless steel plates; details: immersion 5 minutes at ambient temperature
Protocol: (§1) A small quantity of commercial lubricant oil was deposited on the surface of several 30×10 mm stainless steel plates. The mass of each plate was determined with a precision of 0.1 mg before and after deposition. The difference between these two values corresponds to the initial mass of lubricant.
(§2) Once the initial mass is obtained, each steel plate is immersed in a beaker filled with a cleaning composition at ambient temperature for 5 minutes. Thereafter, the steel plates were removed from the beaker and dried in the open air for 5 minutes. Thereafter, the mass of each plate was determined to evaluate the percentage of lubricant oil removed during the test.

[4] = Cleaning of silicone oil from stainless steel plates; details: silicon oil; immersion 5 minutes at ambient temperature
Protocol: as §1, §2
A procedure similar to Example 5 was followed using silicon oil. The results were summarized as in Table 6

[5] = Defluxing of solder flux from stainless steel plates
Protocol: A small quantity of commercial solder flux was deposited on the surface of several 30×10 mm stainless steel plates. The mass of each plate was determined with a precision of 0.1 mg before deposition and corresponds to the tare. The plates were heated to 250° C. until fusion of the metal from the solder flux (between 1 and 2 min.). The metal could then be easily removed from the plates and only the flux remained on them.
The plates prepared with this method were dried in the open air at ambient temperature for 16 hours. The mass of each dried plate was determined with a precision of 0.1 mg before and after deposition. The difference between these two values corresponds to the initial mass of flux.
Once the initial mass was obtained, half of the steel plates are immersed in a beaker filled with a cleaning composition at ambient temperature for 30 minutes and the other half of the plates immersed in a beaker filled with the cleaning solution for 60 minutes. After the immersion, the steel plates were removed from the beakers and dried in the open air for 5 minutes. Thereafter, the mass of each plate was determined to evaluate the percentage of flux removed during the test.

[6] = Cleaning of mineral oil from stainless steel plates; details: immersion 5 minutes at ambient temperature
Protocol: as §1, §2
A procedure similar to Example 5 was followed using commercial natural mineral oil for high pressure.

AMES testing = assay type: cell-based; details: compared with the cis isomer
Excerpt: A major portion of the HCFO-1233zd of the present invention is the trans isomer. […] A preferred ratio of trans and cis isomers of HCFO-1233zd is less than about 30% weight of the combination of the cis isomer, and preferably less than about 10% of the cis isomer. The most preferred ratio is less than about 3% of the cis isomer. […] The preferred Kauri-butanol value of the composition of the present invention is above 15 and preferably above 20.

[7] = Evaporator cleaning (flushing); details: flushing 10 minutes at ambient temperature; compared with HFC-245fa
Protocol: An evaporator from a refrigeration system contains a known quantity of 300 SUS mineral oil. The evaporator could be flushed with flushing agent for 10 minutes at ambient temperature. Following the flushing period, the quantity of oil and residue removed would be determined. This could be done by measuring the weight of the evaporator following flushing and evacuation of flushing agent and/or by stripping the flushing agent from the removed oil and residue and weighing that. HFC-245fa and trans-HCFO-1233zd would be used as flushing agents.

[8] = Residual flushing agent after drying of evaporator; details: 25 °C, air flow, 10 minutes drying; compared with trans-HCFO-1233zd
Protocol: To a clean evaporator from an air conditioning, a measured quantity of flushing liquid would be added to simulate conditions following an open-loop evaporator flushing procedure. The evaporator would be maintained at 25° C. with a slow flow of air passing through the evaporator to assist in drying. The evaporator would be dried such as for 10 minutes and then weighed to measure the quantity of flushing agent remaining.

Question: What does the source list for `C=C(Cl)C(F)(F)F` [1233xf, 2-chloro-3,3,3-trifluoropropene, reference compound]?
Answer: Pressure ([1]; 5.0 °C): 11.5 psia; Pressure ([1]; 15.0 °C): 16.8 psia; Pressure ([1]; 18.5 °C): 18.3 psia; Pressure ([1]; 25.0 °C): 23.8 psia; Pressure ([1]; 35.0 °C): 32.7 psia; Pressure versus atmospheric pressure ([1]; temperature range 15 to 25 °C): > 14.7 psia

Question: Which Pressure ([1]; 5.0 °C) does the source give for `FC(F)(F)/C=C/Cl` [E-1233zd, 1-chloro-3,3,3-trifluoropropene] here?
Answer: 9.1 psia

Question: What about the Pressure ([1]; 15.0 °C) of the same molecule?
Answer: 13.7 psia

Question: What about the Pressure ([1]; 18.5 °C) of the same molecule?
Answer: 14.7 psia

Question: And the Pressure ([1]; 25.0 °C)?
Answer: 19.7 psia

Question: And the Pressure ([1]; 35.0 °C)?
Answer: 27.5 psia

Question: What about the “Pressure versus atmospheric pressure” value ([1]; temperature range 5 to 15 °C) of the same molecule?
Answer: lower than atmospheric

Question: What about the Flash point [2] of the same molecule?
Answer: No

Question: What about the Removal rate [3] of the same molecule?
Answer: 99.10%

Question: And the Removal rate [4]?
Answer: 99.10%

Question: What about the “Removal rate for 30 mn” value ([5]; immersion 30 minutes at ambient temperature) of the same molecule?
Answer: 36.04%

Question: And the “Removal rate for 60 mn” value ([5]; immersion 60 minutes at ambient temperature)?
Answer: 26.24%

Question: And the Removal rate [6]?
Answer: 57.2%

Question: What about the “Genotoxicity in AMES testing” value (AMES testing) of the same molecule?
Answer: significantly lower genotoxicity

Question: What about the “Percentage of oil and residue removed during flushing” value [7] of the same molecule?
Answer: greater percentage

Question: Which results are given for `CC(F)(Cl)Cl` [HCFC 141b, 1,1-dichloro-1-fluoroethane, reference compound]?
Answer: Removal rate [3]: 99.60%; Removal rate [4]: 98.40%

Question: With `COC(C)=O` [Methyl acetate] as the molecule, how does the Removal rate [6] read?
Answer: 31.67%

Question: For `Cl/C=C/Cl` [TDCE, trans-1,2-dichloroethylene], which Flash point [2] is on record?
Answer: Yes

Question: What about the Removal rate [6] of the same molecule?
Answer: 88.51%

Question: With `FC(F)(F)/C=C/Cl` [cis-HCFO-1233zd, 1-chloro-3,3,3-trifluoropropene] as the molecule, how does the “Quantity of flushing agent remaining after drying” value [8] read?
Answer: more cis-HCFO-1233zd would remain

Question: Which Flash point [2] does the source give for dichloropentafluoropropane [HCFC 225] here?
Answer: No

From US10301520B2, “Compositions of hydrochlorofluoroolefins” (Arkema Inc., priority 2008, dated 2019)
